Patent US20050245563A1 (Millennium Pharmaceuticals, Inc., priority 2003, published 2005)

target: T1, human Chk1 (GST-Chk1) (Homo sapiens, UniProt O14757); experiment: Chk1 DELFIA kinase assay (2 nM GST-Chk1, 600 μM ATP); assay type: biochemical; settings: Biotin-GLYRSPSMPEN-amide substrate
T1 construct: made in house; host or cells: insect cells (baculovirus, Bac-to-Bac)
T1 sequence (O14757 1-476): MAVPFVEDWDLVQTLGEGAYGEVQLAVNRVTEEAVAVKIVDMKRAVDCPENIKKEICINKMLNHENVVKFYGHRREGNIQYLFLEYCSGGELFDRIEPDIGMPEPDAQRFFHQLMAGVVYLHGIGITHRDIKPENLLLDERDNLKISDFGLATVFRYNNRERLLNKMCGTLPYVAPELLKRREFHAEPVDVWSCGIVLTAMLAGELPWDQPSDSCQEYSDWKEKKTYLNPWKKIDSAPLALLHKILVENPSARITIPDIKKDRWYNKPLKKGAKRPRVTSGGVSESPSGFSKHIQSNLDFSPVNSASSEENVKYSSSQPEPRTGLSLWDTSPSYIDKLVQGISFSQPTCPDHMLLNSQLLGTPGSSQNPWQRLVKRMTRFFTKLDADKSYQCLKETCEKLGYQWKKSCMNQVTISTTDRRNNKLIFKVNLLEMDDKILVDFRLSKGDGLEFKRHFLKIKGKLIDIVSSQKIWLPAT
Experimental: Recombinant human Chk1 was expressed as a fusion protein with glutathione S-transferase at the amino-terminus (GST-Chk1) using standard baculovirus vectors and (Bac-to-Bac®) insect cell expression system purchased from GIBCO™ Invitrogen. Recombinant protein expressed in insect cells was purified using glutathione sepharose (Amersham Biotech) using standard procedures described by the manufacturer.
Chk1 DELFIA® Kinase Assay:
Assays (25 μL) utilized 2 nM GST-Chk1 containing 10 mM Tris, pH 7.5, 20% glycerol, 50 mM sodium chloride (NaCl), 0.01% Surfact-Amps® 20, 1 μM peptide stubstrate (Biotin-GLYRSPSMPEN-amide) (SEQ ID NO: 3), 01.% BSA, 2 mM DTT, 4% DMSO, 600 μM ATP, 10 MM MgCl2 and reacted for 50 minutes at room temperature. Reactions were terminated with 100 μL of Stop buffer containing 1% BSA, 10 mM Tris, pH 8.0, 150 mM NaCl, 100 mM EDTA. Stopped reactions (100 μL) were transferred to 96 well NeutrAvidin plates (Pierce) to capture the biotin-peptide substrate during a 30 minute room temperature incubation. Wells were washed and reacted with 100 μL PerkinElmer Wallac Assay Buffer containing 21.5 ng/ml anti-phospho-Ser216-Cdc25c rabbit polyclonal antibody from Cell Signaling Technology (Beverly, Mass.) and 292 ng/ml europium labeled anti-rabbit-IgG for 1 hour at room temperature. Wells were washed and europium released from the bound antibody by addition of Enhancement Solution (100 μL) (PerkinElmer Wallac) and detected using a Perkin Elmer Wallac Envison™ 2100 multilabel reader using standard manufacturer settings.

Row | Structure (SMILES) | IC50 [nM]
1 | Cc1[nH]nc2c1c(=O)n(CCCN)c1ccc(C#CCN3CCCC3)cc21 [Example 285, 5-(3-Amino-propyl)-3-methyl-8-(3-pyrrolidin-1-yl-prop-1-ynyl]-2,5-dihydro-pyrazolo[4,3-c]quinolin4-one] | < 1000
2 | Cc1[nH]nc2c1c(=O)n(CCCN)c1ccc(C#CCN3CCCCC3)cc21 [Example 286, 5-(3-Amino-propyl)-3-methyl-8-(3-piperidin-1-yl-prop-1-ynyl]-2,5-dihydro-pyrazolo[4,3-c]quinolin-4-one] | < 1000
3 | CC(=O)N1CCN(CC#Cc2ccc3c(c2)c2n[nH]c(C)c2c(=O)n3CCCN)CC1 [Example 287, 8-[3-(4-Acetyl-piperazin-1-yl)-prop-1-ynyl]-5-(3-amino-propyl)-3-methyl-2,5-dihydro-pyrazolo[4,3-c]quinolin-4-one] | < 1000
4 | Cc1[nH]nc2c1c(=O)n(CCCN)c1ccc(C#CCN3CCOCC3)cc21 [Example 289, 5-(3-Amino-propyl)-3-methyl-8-(3-morpholin-4-yl-prop-1-ynyl]-2,5-dihydro-pyrazolo[4,3-c]quinolin-4-one] | < 1000
5 | C#Cc1ccc2c(c1)c1n[nH]c(CCOC)c1c(=O)n2CCCN [Example 292, 5-(3-Amino-propyl)-8-ethynyl-3-(2-methoxy-ethyl)-2,5-dihydro-pyrazolo[4,3-c]quinolin-4-one] | < 1000
6 | C#Cc1ccc2c(c1)c1n[nH]c(C)c1c(=O)n2CCCNC [Example 293, 8-Ethynyl-3-methyl-5-(3-methylamino-propyl)-2,5-dihydro-pyrazolo[4,3-c]quinolin-4-one] | < 1000
7 | CCc1ccc2c(c1)c1n[nH]c(C)c1c(=O)n2CCCN [Example 294, 5-(3-Amino-propyl)-8-ethyl-3-methyl-2,5-dihydro-pyrazolo[4,3-c]quinolin4-one] | < 1000
8 | COCCCc1ccc2c(c1)c1n[nH]c(C)c1c(=O)n2CCCN [Example 295, 5-(3-amino-propyl)-8-(3-methoxypropyl)-3-methyl-2,5-dihydro-pyrazolo[4,3-c]quinolin-4-one] | < 1000
9 | Cc1[nH]nc2c1c(=O)n(CCCN)c1ccc(CCCN(C)C)cc21 [Example 296, 5-(3-Amino-propyl)-8-(3-dimethylamino-propyl)-3-methyl-2,5-dihydro-pyrazolo[4,3-c]quinolin-4-one] | < 1000
10 | Cc1[nH]nc2c1c(=O)n(CCCN)c1ccc(CCCN3CCCC3)cc21 [Example 297, 5-(3-Amino-propyl)-3-methyl-8-(3-pyrrolidin-1-yl-propyl)-2,5-dihydro-pyrazolo[4,3-c]quinolin-4-one] | < 1000
11 | CC(=O)NCCCc1ccc2c(c1)c1n[nH]c(C)c1c(=O)n2CCCN [Example 298, N-{3-[5-(3-Amino-propyl)-3-methyl-4-oxo-4,5-dihydro-2H-pyrazolo[4,3-c]quinolin-8-yl]-propyl}-acetamide] | < 1000
12 | CCc1ccc2c(c1)c1n[nH]c(C)c1c(=O)n2CCCNC [Example 300, 8-Ethyl-3-methyl-5-(3-methylamino-propyl)-2,5-dihydro-pyrazolo[4,3-c]quinolin-4-one] | < 1000

Next, values leading:

Row | IC50 [nM] | Structure (SMILES)
13 | < 1000 | Cc1[nH]nc2c1c(=O)n(CCCN)c1ccc(C#CCO)cc21 [Example 272, 5-(3-Amino-propyl)-8-(3-hydroxy-prop-1-ynyl)-3-methyl-2,5-dihydro-pyrazolo[4,3-c]quinolin-4-one]
14 | < 1000 | Cc1[nH]nc2c1c(=O)n(CCCN)c1ccc(C#CCN)cc21 [Example 273, 5-(3-Amino-propyl)-8-(3-amino-prop-1-ynyl]-3-methyl 2,5-dihydro-pyrazolo[4,3-c]quinolin-4-one]
15 | < 1000 | CNCC#Cc1ccc2c(c1)c1n[nH]c(C)c1c(=O)n2CCCN [Example 274, 5-(3-Amino-propyl)-3-methyl 8-(3-methylamino-prop-1-ynyl]-2,5-dihydro-pyrazolo[4,3-c]quinolin-4-one]
16 | < 1000 | Cc1[nH]nc2c1c(=O)n(CCCN)c1ccc(C#CCN(C)Cc3ccccc3)cc21 [Example 275, 5-(3-Amino-propyl)-8-[3-(benzyl-methyl-amino)-prop-1-ynyl]-3-methyl-2,5-dihydro-pyrazolo[4,3-c]quinolin-4-one]
17 | < 1000 | CC(=O)NCC#Cc1ccc2c(c1)c1n[nH]c(C)c1c(=O)n2CCCN [Example 276, N-{^3-[5-(3-Amino-propyl)-3-methyl-4-oxo4,5-dihydro-2H-pyrazolo[4,3-c]quinolin-8-yl]-prop-2-ynyl]-acetamide]
18 | < 1000 | Cc1[nH]nc2c1c(=O)n(CCCN)c1ccc(C#Cc3cccnc3)cc21 [Example 277]
19 | < 1000 | Cc1[nH]nc2c1c(=O)n(CCCN)c1ccc(C#Cc3ccccn3)cc21 [Example 278, 5-(3-Amino-propyl)-3-methyl-8-pyridin-2-ylethylynyl-2,5-dihydro-pyrazolo[4,3-c]quinolin-4-one]
20 | < 1000 | Cc1[nH]nc2c1c(=O)n(CCCN)c1ccc(C#Cc3ccncc3)cc21 [Example 279, 5-(3-Amino-propyl)-3-methyl-8-pyridin-4-ylethylynyl-2,5-dihydro-pyrazolo[4,3-c]quinolin-4-one]
21 | < 1000 | Cc1[nH]nc2c1c(=O)n(CCCN)c1ccc(C#CCOc3ccccc3)cc21 [Example 280, 5-(3-Amino-propyl)-3-methyl-8-(3-phenoxy-prop-1-ynyl)-2,5-dihydro-pyrazolo[4,3-c]quinolin-4-one]
22 | < 1000 | COCC#Cc1ccc2c(c1)c1n[nH]c(C)c1c(=O)n2CCCN [Example 281, 5-(3-Amino-propyl)-8-(3-methoxy-prop-1-ynyl)-3-methyl-2,5-dihydro-pyrazolo[4,3-c]quinolin-4-one]
23 | < 1000 | Cc1[nH]nc2c1c(=O)n(CCCN)c1ccc(C#CC(C)O)cc21 (centres unmarked) [Example 282, 5-(3-Amino-propyl)-8-(3-hydroxy-but-1-ynyl)-3-methyl 2,5-dihydro-pyrazolo[4,3-c]quinolin-4-one]
24 | < 1000 | CC#Cc1ccc2c(c1)c1n[nH]c(C)c1c(=O)n2CCCN [Example 283, 5-(3-Amino-propyl)-3-methyl 8-prop-1-ynyl-2,5-dihydro-pyrazolo[4,3-c]quinolin-4-one]
25 | < 1000 | Cc1[nH]nc2c1c(=O)n(CCCN)c1ccc(C#CCN(C)C)cc21 [Example 284, 5-(3-Amino-propyl)-8-(3-dimethylamino-prop-1-ynyl]-3-methyl 2,5-dihydro-pyrazolo[4,3-c]quinolin-4-one]
26 | < 1000 | Cc1[nH]nc2c1c(=O)n(CCCN)c1ccc(C#CCN3CCN(C)CC3)cc21 [Example 288, 5-(3-Amino-propyl)-3-methyl-8-[3-(4-methyl-piperazin-1-yl)-prop-1-ynyl]-2,5-dihydro-pyrazolo[4,3-c]quinolin-4-one]
27 | < 1000 | Cc1[nH]nc2c1c(=O)n(CCCN)c1ccc(C#CCn3ccnc3)cc21 [Example 290, 5-(3-Amino-propyl)-8-(3-imidazol-1-yl-prop-1-ynyl]-3-methyl-2,5-dihydro-pyrazolo[4,3-c]quinolin-4-one]
28 | < 1000 | C#Cc1ccc2c(c1)c1n[nH]c(C)c1c(=O)n2CCCN [Example 291, 5-(3-Amino-propyl)-8-ethynyl-3-methyl-2,5-dihydro-pyrazolo[4,3-c]quinolin-4-one]
29 | < 1000 | Cc1[nH]nc2c1c(=O)n(CCCN)c1ccc(CCc3ccccn3)cc21 [Example 299, 5-(3-Amino-propyl)-3-methyl-8-(2-pyridin-2-yl-thyl)-2,5-dihydro-pyrazolo[4,3-c]quinolin-4-one]
